Earlier results in US20020090664A1, “Methods for measuring stress in mammals” (priority 2000, published 2002).

Test system: salivary cortisol
Conditions: adults exposed to the fragrance before the stressful event, compared with challenge without fragrance; Tanizawa, JP Patent No.11-19076

In the case of `Cc1c[nH]c2ccccc12` [skatole], the “effect of fragrance on stress induced release of cortisol (salivary cortisol levels)” value is given as “opposite effect”.
